Activity calls are given as the source filed them.
Experiments:
[1] = target: T1, Aminopeptidase N (Plasmodium falciparum FcB1/Columbia, UniProt O96935); experiment: P. falciparum M1AAP inhibitors, biochemical, fluorogenic H-Leu-NHMec substrate, 1536-well (AID 1445); design: species or system Plasmodium falciparum 3D7, 3D7
T1 sequence (O96935 whole entry): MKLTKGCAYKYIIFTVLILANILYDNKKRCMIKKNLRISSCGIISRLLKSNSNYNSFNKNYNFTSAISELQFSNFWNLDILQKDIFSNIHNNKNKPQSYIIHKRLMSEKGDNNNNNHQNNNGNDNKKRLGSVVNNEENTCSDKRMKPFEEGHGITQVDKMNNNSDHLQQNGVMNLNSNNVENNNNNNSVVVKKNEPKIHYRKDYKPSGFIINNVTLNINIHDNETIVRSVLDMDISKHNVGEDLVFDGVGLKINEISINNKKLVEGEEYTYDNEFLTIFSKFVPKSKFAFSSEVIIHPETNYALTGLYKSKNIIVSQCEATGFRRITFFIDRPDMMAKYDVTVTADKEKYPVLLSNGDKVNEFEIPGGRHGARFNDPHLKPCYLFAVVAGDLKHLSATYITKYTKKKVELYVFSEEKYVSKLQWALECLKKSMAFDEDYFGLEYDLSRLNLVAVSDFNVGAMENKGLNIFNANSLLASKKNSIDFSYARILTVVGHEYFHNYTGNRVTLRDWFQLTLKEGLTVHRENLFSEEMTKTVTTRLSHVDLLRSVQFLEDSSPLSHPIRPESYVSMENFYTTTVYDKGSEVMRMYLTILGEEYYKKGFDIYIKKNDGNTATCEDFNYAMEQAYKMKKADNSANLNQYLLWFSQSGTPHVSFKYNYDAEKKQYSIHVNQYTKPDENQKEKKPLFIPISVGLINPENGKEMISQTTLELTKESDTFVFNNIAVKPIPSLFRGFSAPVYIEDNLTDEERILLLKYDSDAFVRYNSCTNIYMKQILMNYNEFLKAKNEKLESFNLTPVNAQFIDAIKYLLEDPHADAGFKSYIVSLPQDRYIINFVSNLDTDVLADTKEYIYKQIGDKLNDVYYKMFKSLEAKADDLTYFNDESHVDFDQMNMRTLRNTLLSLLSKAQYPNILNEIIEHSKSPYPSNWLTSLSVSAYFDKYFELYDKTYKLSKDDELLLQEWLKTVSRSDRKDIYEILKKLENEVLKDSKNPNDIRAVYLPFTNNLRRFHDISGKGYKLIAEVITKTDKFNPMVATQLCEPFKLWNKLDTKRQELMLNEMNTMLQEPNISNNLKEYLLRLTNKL

[2] = target: Procathepsin L (Homo sapiens, UniProt P07711); experiment: cathepsin L inhibitors, dose response, counter-screen for M1/M17 aminopeptidase inhibitor project, biochemical, QFRET, 1536-well (AID 2214)
[3] = target: Aspartyl aminopeptidase (Plasmodium falciparum 3D7, UniProt Q8I2J3); experiment: Counterscreen for inhibitors of M1 and M17 aminopeptidases: QFRET-based biochemical high throughput dose response assay for inhibitors of the Plasmodium falciparum M18 Aspartyl Aminopeptidase (PFM18AAP). [Related PubChem assays: 1619 (Screening assay (M17LAP inhibitors).), 1445 (Screening assay (M1AAP inhibitors).)]
[4] = target: T2, Leucine aminopeptidase (Plasmodium falciparum 3D7, UniProt Q8IL11); experiment: P. falciparum M17LAP inhibitors, primary screen, biochemical, fluorogenic H-Leu-NHMec substrate, 1536-well (AID 1619); assay type: functional
T2 sequence (Q8IL11 whole entry): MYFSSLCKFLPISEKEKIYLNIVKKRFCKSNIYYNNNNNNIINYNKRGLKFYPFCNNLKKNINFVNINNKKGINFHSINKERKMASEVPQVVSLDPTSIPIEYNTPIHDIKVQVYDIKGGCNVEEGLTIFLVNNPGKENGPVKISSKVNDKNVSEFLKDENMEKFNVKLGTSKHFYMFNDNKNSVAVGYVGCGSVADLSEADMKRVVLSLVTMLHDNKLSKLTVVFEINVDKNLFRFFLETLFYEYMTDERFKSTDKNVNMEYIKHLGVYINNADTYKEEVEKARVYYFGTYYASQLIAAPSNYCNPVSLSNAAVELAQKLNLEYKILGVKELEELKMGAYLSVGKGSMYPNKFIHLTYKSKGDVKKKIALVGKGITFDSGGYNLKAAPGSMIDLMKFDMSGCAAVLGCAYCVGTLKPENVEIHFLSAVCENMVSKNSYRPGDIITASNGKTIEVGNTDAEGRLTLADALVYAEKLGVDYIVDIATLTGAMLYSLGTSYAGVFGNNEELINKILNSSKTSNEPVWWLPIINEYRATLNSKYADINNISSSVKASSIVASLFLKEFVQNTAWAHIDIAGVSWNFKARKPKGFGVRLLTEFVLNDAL

[5] = A Cell Based Secondary Assay To Explore Cytotoxicity of Compounds that Sensitize Mycobacterium Tuberculosis to Beta-Lactam Antibiotics.; assay type: functional
[6] = target: Acyl-homoserine lactone acylase PvdQ (Pseudomonas aeruginosa (strain LESB58), UniProt Q9I194); experiment: P. aeruginosa PvdQ acylase inhibitors, dose response, biochemical, fluorescence, plate reader and imaging, cherry-picks (AID 493231)
[7] = target: T3, Eukaryotic translation initiation factor 2-alpha kinase 3 (Homo sapiens, UniProt Q9NZJ5); experiment: Counterscreen assay for PERK inhibitors: Dose response cell-based high throughput screening assay to measure inhibition of PERK at 6 hours. [Related pubchem assays: 1522, 1416 ]; assay type: functional
T3 sequence (Q9NZJ5 whole entry): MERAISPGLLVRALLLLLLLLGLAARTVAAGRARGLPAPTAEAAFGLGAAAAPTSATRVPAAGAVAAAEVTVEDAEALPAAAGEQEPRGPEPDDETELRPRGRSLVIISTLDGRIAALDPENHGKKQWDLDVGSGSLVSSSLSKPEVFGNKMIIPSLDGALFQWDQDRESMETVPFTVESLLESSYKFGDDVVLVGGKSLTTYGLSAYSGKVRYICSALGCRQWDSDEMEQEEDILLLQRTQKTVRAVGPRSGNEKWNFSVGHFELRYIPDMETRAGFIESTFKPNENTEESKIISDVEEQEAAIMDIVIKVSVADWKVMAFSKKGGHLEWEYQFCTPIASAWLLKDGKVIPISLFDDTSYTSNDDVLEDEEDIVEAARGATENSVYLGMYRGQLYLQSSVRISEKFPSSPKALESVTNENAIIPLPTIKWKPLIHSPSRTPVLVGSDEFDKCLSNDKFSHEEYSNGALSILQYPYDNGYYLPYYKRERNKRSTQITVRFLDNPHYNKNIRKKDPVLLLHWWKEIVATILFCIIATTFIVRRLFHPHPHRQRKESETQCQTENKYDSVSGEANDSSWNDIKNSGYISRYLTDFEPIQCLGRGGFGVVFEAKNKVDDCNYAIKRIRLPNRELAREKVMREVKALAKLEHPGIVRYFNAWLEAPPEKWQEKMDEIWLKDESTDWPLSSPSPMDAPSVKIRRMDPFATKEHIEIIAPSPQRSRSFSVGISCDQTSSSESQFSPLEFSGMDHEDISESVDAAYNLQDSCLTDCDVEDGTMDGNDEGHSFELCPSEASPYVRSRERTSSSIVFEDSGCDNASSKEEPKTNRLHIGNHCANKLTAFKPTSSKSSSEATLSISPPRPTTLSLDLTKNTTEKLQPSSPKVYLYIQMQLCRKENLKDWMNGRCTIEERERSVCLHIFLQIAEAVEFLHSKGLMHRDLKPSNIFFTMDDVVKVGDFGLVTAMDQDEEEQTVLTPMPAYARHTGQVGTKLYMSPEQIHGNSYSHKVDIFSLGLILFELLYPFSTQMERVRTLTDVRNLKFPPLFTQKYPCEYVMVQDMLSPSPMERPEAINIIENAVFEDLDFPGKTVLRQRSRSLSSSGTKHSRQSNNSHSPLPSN

[8] = target: T3, Eukaryotic translation initiation factor 2-alpha kinase 3; experiment: Dose response cell-based high-throughput screening assay to measure PERK inhibition. [Related pubchem assays: 1416 ]; assay type: functional

Acyl-homoserine lactone acylase PvdQ, sequence (Q9I194 24-193 limits assumed): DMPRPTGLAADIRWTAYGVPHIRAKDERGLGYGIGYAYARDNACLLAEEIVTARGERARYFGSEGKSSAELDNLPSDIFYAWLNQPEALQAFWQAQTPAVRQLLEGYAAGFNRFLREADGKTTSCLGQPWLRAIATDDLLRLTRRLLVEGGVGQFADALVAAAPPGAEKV
Acyl-homoserine lactone acylase PvdQ, sequence (Q9I194 217-762 limits assumed): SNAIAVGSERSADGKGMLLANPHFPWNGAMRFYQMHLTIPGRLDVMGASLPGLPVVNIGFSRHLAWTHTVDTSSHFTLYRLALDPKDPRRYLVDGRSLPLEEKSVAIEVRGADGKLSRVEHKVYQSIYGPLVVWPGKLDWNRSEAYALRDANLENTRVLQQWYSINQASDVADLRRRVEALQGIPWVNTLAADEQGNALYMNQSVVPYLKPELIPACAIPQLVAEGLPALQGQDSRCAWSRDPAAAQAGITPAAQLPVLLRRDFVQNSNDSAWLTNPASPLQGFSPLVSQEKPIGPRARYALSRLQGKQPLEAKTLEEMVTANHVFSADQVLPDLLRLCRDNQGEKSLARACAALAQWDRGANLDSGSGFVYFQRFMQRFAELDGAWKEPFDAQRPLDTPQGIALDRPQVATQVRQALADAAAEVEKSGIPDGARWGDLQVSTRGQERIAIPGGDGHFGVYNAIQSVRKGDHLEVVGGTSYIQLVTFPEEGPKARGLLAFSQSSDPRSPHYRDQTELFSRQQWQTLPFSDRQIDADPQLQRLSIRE
Procathepsin L, sequence (P07711 whole entry): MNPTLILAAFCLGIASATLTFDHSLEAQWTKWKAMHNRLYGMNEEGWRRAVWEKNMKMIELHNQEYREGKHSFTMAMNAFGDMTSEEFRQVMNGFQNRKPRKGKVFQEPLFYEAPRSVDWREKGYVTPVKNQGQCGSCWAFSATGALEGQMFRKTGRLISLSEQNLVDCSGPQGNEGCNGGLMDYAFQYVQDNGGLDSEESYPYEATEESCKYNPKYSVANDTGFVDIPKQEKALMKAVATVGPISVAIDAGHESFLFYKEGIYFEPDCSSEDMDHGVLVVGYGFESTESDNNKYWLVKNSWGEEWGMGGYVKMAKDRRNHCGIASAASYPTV
Aspartyl aminopeptidase, sequence (Q8I2J3 whole entry): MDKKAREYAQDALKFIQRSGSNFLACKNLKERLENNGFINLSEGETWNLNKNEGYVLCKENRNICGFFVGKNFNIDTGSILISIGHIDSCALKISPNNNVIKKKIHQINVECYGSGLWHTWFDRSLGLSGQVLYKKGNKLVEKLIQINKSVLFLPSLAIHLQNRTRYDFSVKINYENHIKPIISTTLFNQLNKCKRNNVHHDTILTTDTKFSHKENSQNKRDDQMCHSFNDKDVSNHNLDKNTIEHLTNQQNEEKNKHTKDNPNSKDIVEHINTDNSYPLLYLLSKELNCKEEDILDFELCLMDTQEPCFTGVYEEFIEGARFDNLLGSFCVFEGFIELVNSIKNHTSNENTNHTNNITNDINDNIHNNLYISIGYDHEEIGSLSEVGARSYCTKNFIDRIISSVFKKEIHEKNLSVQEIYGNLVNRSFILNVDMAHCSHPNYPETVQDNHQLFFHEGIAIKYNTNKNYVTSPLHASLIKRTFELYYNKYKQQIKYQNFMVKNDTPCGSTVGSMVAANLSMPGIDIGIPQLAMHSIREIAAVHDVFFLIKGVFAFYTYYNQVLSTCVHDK

## CCCS(=O)(=O)N1CCC(C(=O)NCc2ccc3c(c2)OCO3)CC1
[1]
  IC50: 13.1 µM (active)
[2]
  IC50: > 59.6 µM (not active)
[3]
  IC50: > 73.5 µM (not active)

## O=C(CSc1nc2c(c(=O)[nH]1)CN(Cc1ccc(F)cc1)CC2)Nc1ccc(F)cc1
[4]
  IC50: 7.8 µM (active)
[2]
  IC50: > 59.6 µM (not active)
[3]
  IC50: > 73.5 µM (not active)

## O=c1c2cc(Cl)ccc2[nH]c(=S)n1Cc1cccs1
[5]
  CC50: > 40 µM (active)

## CCOC(=O)c1cnc(-c2ccccc2)nc1N
[6]
  AC50: 11.6 µM (active)

## O=C1c2ccncc2C(=O)N1c1cccc(Cl)c1
[7]
  EC50: > 55.7 µM (not active)
[8]
  EC50: > 55.7 µM (not active)

## N#CCn1c(C2CCCCC2)nc2ccccc2c1=O
[6]
  AC50: 13.1 µM (active)
